# Like-named read-outs stand apart in the source and are kept apart here.
# Columns and labels:
# cyclooxygenase 1 (COX 1) = biological target: T1, cyclooxygenase 1 (COX 1) (Mus musculus, UniProt P22437); assay: Inhibitory activity in relation to COX 1 in peritoneal macrophages exposed to zymosan; type: cell-based; conditions: mice peritoneal macrophages
# T1 construct: using mice peritoneal macrophages exposed to inflammatory stimuli (zymosan and LPS, respectively); endogenous in cells; host or cells: mouse peritoneal macrophages exposed to zymosan
# T1 sequence (P22437 27-602): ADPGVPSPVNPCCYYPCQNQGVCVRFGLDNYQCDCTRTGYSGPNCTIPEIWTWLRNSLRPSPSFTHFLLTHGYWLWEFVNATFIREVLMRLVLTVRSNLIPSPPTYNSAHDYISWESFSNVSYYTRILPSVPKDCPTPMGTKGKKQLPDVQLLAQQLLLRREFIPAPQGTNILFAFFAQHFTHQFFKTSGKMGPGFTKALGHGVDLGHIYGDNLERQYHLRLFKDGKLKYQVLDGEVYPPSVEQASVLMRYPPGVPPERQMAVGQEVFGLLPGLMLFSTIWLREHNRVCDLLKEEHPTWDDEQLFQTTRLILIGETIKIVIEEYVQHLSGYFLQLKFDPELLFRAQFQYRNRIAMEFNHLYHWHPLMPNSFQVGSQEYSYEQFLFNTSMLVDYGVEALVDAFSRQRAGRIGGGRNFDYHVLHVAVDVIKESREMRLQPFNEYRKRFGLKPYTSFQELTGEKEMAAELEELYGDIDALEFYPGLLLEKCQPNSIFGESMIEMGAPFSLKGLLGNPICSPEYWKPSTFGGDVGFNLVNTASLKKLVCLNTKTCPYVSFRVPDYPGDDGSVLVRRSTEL
# Experimental: (§1) The inhibitory activities of the compounds in relation to COX 1 and COX 2 were evaluated using mice peritoneal macrophages exposed to inflammatory stimuli (zymosan and LPS, respectively) in accordance with the method described by Tordjman el al., Biochimica et Biophysica Acta, 1995, 1256, 249-56.
# cyclooxygenase 2 (COX 2) = biological target: T2, cyclooxygenase 2 (COX 2) (Mus musculus, UniProt Q05769); assay: Inhibitory activity in relation to COX 2 in peritoneal macrophages exposed to LPS; type: cell-based
# T2 construct: using mice peritoneal macrophages exposed to inflammatory stimuli (zymosan and LPS, respectively); endogenous in cells; host or cells: mouse peritoneal macrophages exposed to LPS
# T2 sequence (Q05769 18-604): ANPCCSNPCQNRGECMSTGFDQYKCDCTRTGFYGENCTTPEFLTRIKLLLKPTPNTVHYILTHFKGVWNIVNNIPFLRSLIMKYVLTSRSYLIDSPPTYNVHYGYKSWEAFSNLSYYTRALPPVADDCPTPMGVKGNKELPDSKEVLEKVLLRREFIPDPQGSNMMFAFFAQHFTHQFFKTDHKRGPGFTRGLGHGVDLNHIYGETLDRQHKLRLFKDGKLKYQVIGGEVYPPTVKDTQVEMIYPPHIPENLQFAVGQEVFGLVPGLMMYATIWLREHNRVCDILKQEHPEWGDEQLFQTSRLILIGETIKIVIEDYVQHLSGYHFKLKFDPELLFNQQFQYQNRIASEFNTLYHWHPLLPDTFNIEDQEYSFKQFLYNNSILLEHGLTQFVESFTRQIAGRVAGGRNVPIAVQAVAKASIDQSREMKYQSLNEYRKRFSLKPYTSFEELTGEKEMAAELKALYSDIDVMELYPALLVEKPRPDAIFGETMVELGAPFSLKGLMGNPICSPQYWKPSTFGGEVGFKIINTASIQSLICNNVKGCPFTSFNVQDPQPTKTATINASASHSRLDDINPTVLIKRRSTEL
# Experimental: as §1
# [1] = system: IL1β production by THP1 line cells; assay: Inhibition of production of IL1β by THP1 line cells stimulated with LPS; type: cell-based; conditions: Homo sapiens, THP-1
# [2] = system: production of prostaglandins; assay: Inhibition of prostaglandin production in the carrageenin air-pouch model; type: in vivo; conditions: oral, mouse
# Excerpt: In addition, those compounds exert an activity in animals especially by inhibiting the production of prostaglandins in the carrageenin air-pouch model in the mouse (Whittle, B. J. R. et al., Nature, 1980, 284, 271-273; Masferrer, J. L. el al., Proc. Natl. Acad. Sci. USA, 1994, 91, 3228-3232).
# [3] = system: NO production in mouse peritoneal macrophages; assay: Inhibition of NO production in peritoneal macrophages stimulated with LPS; type: cell-based; conditions: Peritoneal macrophage
IC50 (cyclooxygenase 1 (COX 1)) [nM],Structure (SMILES),other results
100 to 500,"Fc1ccc(-c2[nH]c(-c3ccc(F)cc3)c3c2CCCC3)cc1 [Example 1, 1,3-di-(4-fluorophenyl)-4,5,6,7-tetrahydro-2H-isoindole]","IC50 (cyclooxygenase 2 (COX 2); mice peritoneal macrophages, read-out: IC50 cox 2): 1 nM"
100 to 500,"c1ccc(-c2[nH]c(-c3ccccc3)c3c2CCCC3)cc1 [Example 2, 1,3-diphenyl-4,5,6,7-tetrahydro-2H-isoindole]","IC50 (cyclooxygenase 2 (COX 2); read-out: IC50 cox 2, mice peritoneal macrophages): 1 nM"
100 to 500,"c1ccc(-c2[nH]c(-c3ccccc3)c3c2CCC3)cc1 [Example 4, 1,3-diphenyl-2,4,5,6-tetrahydrocyclopenta[c]pyrrole]",–
100,"C1=CCc2c(-c3ccccc3)[nH]c(-c3ccccc3)c2C1 [Example 5, 1,3-diphenyl-4,7-dihydro-2H-isoindole]",–
–,"CC1Cc2c(-c3ccccc3)[nH]c(-c3ccccc3)c2CC1C (stereo not shown) [Example 9, 1,3-diphenyl-5,6-dimethyl-4,5,6,7-tetrahydro-2H-isoindole]",IC50 [1]: ~1000 nM

Structure (SMILES),IC50 (cyclooxygenase 1 (COX 1)) [nM],other results
"Fc1ccc(-c2[nH]c(-c3ccc(F)cc3)c3c2C2CCC3C2)cc1 [Example 19, 1,3-di-(4-fluorophenyl)-4,7-methano-4,5,6,7-tetrahydro-2H-isoindole]",100,ED50 [2]: 2.5 mg/kg; IC50 [3]: 2500 nM

# Source: US6063804A, “Pyrrole compounds” (Adir et Compagnie, priority 1997, dated 2000)
